Test results: US9732075B2, “Benzimidazole-proline derivatives” (IDORSIA PHARMACEUTICALS LTD, priority 2012, dated 2017)

Assays:
human orexin-2 receptor = human orexin-2 receptor (Homo sapiens (Human), UniProt O43614); assay: In vitro assay: intracellular calcium measurements (FLIPR), antagonistic activity; type: cell-based; conditions: CHO cells expressing human orexin-2 receptor, orexin-A agonist, geometric mean, read-out: IC50 Ox2
In short: (§1)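 Read-out: FLIPR fluo-4 calcium peak height in CHO cells bearing human orexin-1 or orexin-2 receptor, relative to orexin-A (approx. EC70) with vehicle. Antagonist preincubation 120 min; agonist orexin-A at 3 nM final. IC50 possibly normalized to an on-plate reference compound.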

human orexin-1 receptor = human orexin-1 receptor (Homo sapiens (Human), UniProt O43613); assay: as above; type: cell-based; conditions: CHO cells expressing human orexin-1 receptor, orexin-A agonist, geometric mean, read-out: IC50 Ox1
In short: as §1

Sequence of human orexin-1 receptor (O43613 whole entry): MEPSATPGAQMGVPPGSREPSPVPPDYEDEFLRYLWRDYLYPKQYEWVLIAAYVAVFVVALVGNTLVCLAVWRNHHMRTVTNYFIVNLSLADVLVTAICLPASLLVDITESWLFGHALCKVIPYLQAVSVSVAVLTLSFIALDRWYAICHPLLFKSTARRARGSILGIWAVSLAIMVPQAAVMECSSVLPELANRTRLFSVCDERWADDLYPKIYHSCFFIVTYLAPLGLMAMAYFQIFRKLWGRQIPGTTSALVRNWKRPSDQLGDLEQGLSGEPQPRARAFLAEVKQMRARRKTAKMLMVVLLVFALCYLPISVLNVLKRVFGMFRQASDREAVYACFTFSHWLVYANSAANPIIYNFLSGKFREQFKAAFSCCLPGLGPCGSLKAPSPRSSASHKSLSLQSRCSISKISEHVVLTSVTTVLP
Sequence of human orexin-2 receptor (O43614 whole entry): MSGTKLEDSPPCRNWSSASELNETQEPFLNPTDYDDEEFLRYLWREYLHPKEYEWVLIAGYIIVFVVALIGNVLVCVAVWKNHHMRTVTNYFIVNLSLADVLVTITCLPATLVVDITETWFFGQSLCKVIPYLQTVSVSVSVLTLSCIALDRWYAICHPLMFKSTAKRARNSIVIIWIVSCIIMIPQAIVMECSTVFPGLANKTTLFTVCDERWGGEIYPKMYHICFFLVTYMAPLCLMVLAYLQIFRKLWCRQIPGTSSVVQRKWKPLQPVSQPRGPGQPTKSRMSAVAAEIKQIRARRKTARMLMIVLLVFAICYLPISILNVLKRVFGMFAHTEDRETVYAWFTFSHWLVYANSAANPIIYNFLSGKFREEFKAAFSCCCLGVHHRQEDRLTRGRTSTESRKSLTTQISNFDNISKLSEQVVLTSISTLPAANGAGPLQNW

## Cc1nc(C(=O)N2CC[C@H](C)[C@H]2c2nc3c(C(F)(F)F)cccc3[nH]2)c(-c2cccc(Cl)c2)s1 [Ex. 4.19]
Human orexin-2 receptor
  IC50: 422 nM
Human orexin-1 receptor
  IC50: 2 nM

## Cc1nc(C(=O)N2CC[C@H](C)[C@H]2c2nc3c(C)c(Cl)ccc3[nH]2)c(-c2cc(F)cc(F)c2)s1 [Ex. 4.67]
Human orexin-2 receptor
  IC50: 251 nM
Human orexin-1 receptor
  IC50: 0.9 nM

## Cc1nc(C(=O)N2CCCC2c2nc3c(F)cccc3[nH]2)c(-c2cccc(Cl)c2)s1 (stereo not shown) [Ex. 1.104]
Human orexin-2 receptor
  IC50: 769 nM
Human orexin-1 receptor
  IC50: 657 nM

## Cc1ccc(-n2nccn2)c(C(=O)N2CCC[C@@]2(C)c2nc3cc(Cl)c(Cl)cc3[nH]2)c1 [Ex. 5.7]
Human orexin-2 receptor
  IC50: 29 nM
Human orexin-1 receptor
  IC50: 5 nM

## Cc1cccc(C(=O)N2CCC[C@@]2(C)c2nc3cc(C(F)(F)F)ccc3[nH]2)c1-n1nccn1 [Ex. 5.179]
Human orexin-2 receptor
  IC50: 1120 nM
Human orexin-1 receptor
  IC50: 368 nM

## Cc1nc(C(=O)N2CCC[C@@]2(C)c2nc3c(F)c(F)ccc3[nH]2)c(-c2ccccc2)s1 [Ex. 5.206]
Human orexin-2 receptor
  IC50: 117 nM
Human orexin-1 receptor
  IC50: 19 nM

## Cc1cc2nc([C@]3(C)CCCN3C(=O)c3ccccc3-c3cccc(F)c3)[nH]c2cc1C [Ex. 5.105]
Human orexin-2 receptor
  IC50: 28 nM
Human orexin-1 receptor
  IC50: 24 nM

## Cc1nc(C(=O)N2CCCC2c2nc3cc(Br)ccc3[nH]2)c(-c2ccccc2)s1 (stereo not shown) [Ex. 1.120]
Human orexin-2 receptor
  IC50: 557 nM
Human orexin-1 receptor
  IC50: 147 nM

## Cc1nc(C(=O)N2CC[C@H](C)[C@H]2c2nc3cc(C(F)(F)F)ccc3[nH]2)c(-c2ccc(Cl)cc2)s1 [Ex. 4.139]
Human orexin-2 receptor
  IC50: 2260 nM
Human orexin-1 receptor
  IC50: 5 nM

## C=C1CN(C(=O)c2nc(C)sc2-c2ccccc2)C(C)(c2nc3cc(OC)ccc3[nH]2)C1 (racemic) [Ex. 6.154]
Human orexin-2 receptor
  IC50: 38 nM
Human orexin-1 receptor
  IC50: 32 nM

## CSc1cccc2nc([C@@H]3CCCN3C(=O)c3cncnc3-c3ccc(C)cc3)[nH]c12 [Ex. 1.78]
Human orexin-2 receptor
  IC50: 408 nM
Human orexin-1 receptor
  IC50: 102 nM

## COc1ccc2nc([C@@H]3C[C@@H](OC)CN3C(=O)c3ccc(C)cc3-n3nccn3)[nH]c2c1 [Ex. 3.21]
Human orexin-2 receptor
  IC50: 33 nM
Human orexin-1 receptor
  IC50: 2510 nM

## Cc1cc2nc([C@]3(C)CCCN3C(=O)c3cc(F)ccc3-n3nccn3)[nH]c2cc1C [Ex. 5.60]
Human orexin-2 receptor
  IC50: 54 nM
Human orexin-1 receptor
  IC50: 156 nM

## C=C1C[C@@H](c2nc3c(C)c(Cl)ccc3[nH]2)N(C(=O)c2nc(C)sc2-c2ccccc2)C1 [Ex. 6.41]
Human orexin-2 receptor
  IC50: 2 nM
Human orexin-1 receptor
  IC50: 4 nM
